Assay results published in article PMC5578959, “Selective LRRK2 kinase inhibition reduces phosphorylation of endogenous Rab10 and Rab12 in human peripheral mononuclear blood cells” (Scientific Reports, 2017).

Legend:
Rab10-pThr73 = assay: Western Blot, cultured immune stimulated human PBMCs; format: cell-based; details: 100 nM
Experimental: PBMC were isolated from fresh blood collected within a maximal time of 4 hours after blood collection. Leucosep tubes (Greiner 227290) was added 15 ml Ficoll (GE Healthcare 17-440-03) and spun 30 s at 1000 × g. Blood was diluted 1:1 using D-PBS 1X (Gibco 14190), transfered to the Leucosep and centrifuged at 800 g for 15 min without brake. The upper layer corresponding to the diluted plasma was removed and the PBMC layer collected using a pipette or by pouring into a clean BD Falcon 50 ml tube. Cells were re-suspended and washed four times with 10 ml of D-PBS 1X (Gibco 14190) followed by centrifugation at 250 g for 10 min with brake at room temperature. The supernatant was discarded and the cells re-suspended in Complete medium equilibrated to 37 °C. The number of dead and living cells were counted on a Nucleocounter and used to calculate percent viability.
Freshly isolated PBMCs were plated at a density ranging from 7–20 × 10^6 cells in 10 cm petri dishes (Costar 3262) in RPMI-1640 media (Gibco 61870–010) supplemented with 10% non-heat inactivated FBS, 5 ml Antimycotic (Sigma cat:5965) with or without an immune stimulation cocktail consisting of 400 nM phorbol 12-myristate 13-acetate (PMA) and 100 ng/ml interferon-γ (INF-γ). After 48 hrs in culture the cultures were added a fifth of the volume media containing 5x the final concentration of the respective LRRK2 inhibitor with or without PMA and interferon-γ. […] After 72 hrs in culture the PBMC’s were harvested, pelleted and fresh-frozen on dry-ice. An aliquot of PBMCs was used for assessment of PBMC yield and viability.
Cell pellets were resuspended and solubilized in 100 µL lysis buffer (50 mM Tris hydrochloride, 1 mM magnesium chloride, 1% Triton, 0.1% sodium dodecyl sulfate (SDS), pH 8.0) on ice for 20 minutes and then centrifuged at 20,000 g for 30 minutes at 4 °C. The solubilized crude cell lysate was size mobility separated by SDS-polyacrylamide gel electrophoresis (SDS-PAGE). LRRK2 was separated on a 3–8% Tris-Acetate gel (NuPAGE® Tris-Acetate Mini Gels, Life Technologies, Paisley, UK) and Rab10 and Rab12 were separated using a NuPAGE® Novex 4–12% Bis-Tris Gel (Invitrogen, California, US). An amount of 10 µg total protein was loaded in each well. Proteins were transferred to immobilon-FL PVDF membranes (Millipore, Billerica, US). […] The proteins were visually detected by infrared imaging using Odyssey CLx (LI-COR, Nebraska, US). Membranes were scanned and band intensities were quantified using the Image Studio version 3.1.4 (LI-COR, Nebraska).

[1] = system: kinases other than LRRK2 (off-target kinases); assay: KiNativ broad kinase profiling in human PBMCs; format: binding; details: 100 nM
Experimental: Compounds were shipped to ActivX Technologies (San Diego, US) where LRRK2 target engagement and broad kinase profiling was performed using KiNativ™ procedures. Live cell treatment of human peripheral blood mononuclear cells (PBMCs) at two compound concentrations (1 µM and 0.1 µM) were used to evaluate and compare in vitro target engagement and kinase selectivity, respectively (see Supplementary File 1).

CDC2 = system: T1, CDC2; assay: KiNativ profiling in human PBMCs; format: binding; details: Lys2
T1 construct: purchased ActivX Technologies (KiNativ)
In short: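 Cellular kinase profiling (KiNativ) was run on peripheral blood mononuclear cells incubated live with compound, tested at 1 µM and 0.1 µM.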

FER = system: T2, FER; assay: KiNativ profiling in human PBMCs; format: binding
T2 construct: purchased ActivX Technologies (KiNativ)
In short: (§1)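 Steps: expose living PBMCs to compound (0.1 µM or 1 µM); perform KiNativ-based kinase profiling.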

FRAP = system: T3, FRAP; assay: KiNativ profiling in human PBMCs; format: binding; details: ATP
T3 construct: purchased ActivX Technologies (KiNativ)
In short: as §1

GCN2 = system: T4, GCN2; assay: KiNativ profiling in human PBMCs; format: binding
T4 construct: purchased ActivX Technologies (KiNativ)
In short: as §1

IKKe,TBK1 = assay: KiNativ profiling in human PBMCs; format: binding; details: Lys2
In short: as §1

MAP2K4 = system: T5, MAP2K4; assay: KiNativ profiling in human PBMCs; format: binding
T5 construct: purchased ActivX Technologies (KiNativ)
In short: as §1

MARK3 = system: T6, MARK3; assay: KiNativ profiling in human PBMCs; format: binding; details: Lys1
T6 construct: purchased ActivX Technologies (KiNativ)
In short: as §1

NEK7 = system: T7, NEK7; assay: KiNativ profiling in human PBMCs; format: binding; details: Lys1
T7 construct: purchased ActivX Technologies (KiNativ)
In short: as §1

NEK9 = system: T8, NEK9; assay: KiNativ profiling in human PBMCs; format: binding
T8 construct: purchased ActivX Technologies (KiNativ)
In short: as §1

PAN3 = system: T9, PAN3; assay: KiNativ profiling in human PBMCs; format: binding; details: for Inhibition: Protein Kinase Domain; for % Inhibition: ATP
T9 construct: purchased ActivX Technologies (KiNativ)
In short: as §1

PIP4K2C = system: T10, PIP4K2C; assay: KiNativ profiling in human PBMCs; format: binding; details: ATP
T10 construct: purchased ActivX Technologies (KiNativ)
In short: as §1

PRP4 = system: T11, PRP4; assay: KiNativ profiling in human PBMCs; format: binding; details: for Inhibition: Other
T11 construct: purchased ActivX Technologies (KiNativ)
In short: as §1

STLK3 = system: T12, STLK3; assay: KiNativ profiling in human PBMCs; format: binding; details: Lys2
T12 construct: purchased ActivX Technologies (KiNativ)
In short: as §1

STLK6 = system: T13, STLK6; assay: KiNativ profiling in human PBMCs; format: binding
T13 construct: purchased ActivX Technologies (KiNativ)
In short: as §1

ULK1 = system: T14, ULK1; assay: KiNativ profiling in human PBMCs; format: binding; details: Lys2
T14 construct: purchased ActivX Technologies (KiNativ)
In short: as §1

eEF2K = system: T15, eEF2K; assay: KiNativ profiling in human PBMCs; format: binding; details: ATP
T15 construct: purchased ActivX Technologies (KiNativ)
In short: as §1

p38d,p38g = assay: KiNativ profiling in human PBMCs; format: binding; details: Lys2
In short: as §1

Cc1cccc(-c2cc(Nc3ccn(C)n3)nc3[nH]cc(C#N)c23)c1 [Lu AF58786]
inhibition of Rab10 phosphorylation (Rab10-pThr73/total Rab10) (Rab10-pThr73; 1 hr): not at 1 hr | inhibition of Rab10 phosphorylation (Rab10-pThr73/total Rab10) (Rab10-pThr73; 24 hrs): able to inhibit Rab10 phosphorylation at 24 hrs | inhibition of other kinases ([1]; human PBMCs): no inhibition | Inhibition (CDC2; 0.1 µM, DLKPQNLLIDDK): -19.4% | Inhibition (CDC2; 0.1 µM, DLKPQNLLIDDKGTIK): 5.9% | Inhibition (CDC2; 1 µM, DLKPQNLLIDDK): -27.3% | Inhibition (CDC2; 1 µM, DLKPQNLLIDDKGTIK): 6.8% | Inhibition (FER; 0.1µM, Activation Loop): -5.4% | Inhibition (FER; 0.1µM, Lys1): 1.7% | Inhibition (FER; 1µM, Activation Loop): -16.1% | Inhibition (FER; 1µM, Lys1): 5.0% | Inhibition (FRAP; 0.1µM): 5.2% | Inhibition (FRAP; 1µM): -3.4% | Inhibition (GCN2; 0.1µM, Lys2): -20.3% | Inhibition (GCN2; 1µM, Lys2): -15.5% | Inhibition (IKKe,TBK1; 0.1µM): -16.4% | Inhibition (IKKe,TBK1; 1µM): -9.8% | Inhibition (MAP2K4; 1µM, Lys2): -0.124% | Inhibition (MARK3; 0.1µM): 2.1% | Inhibition (MARK3; 1µM): 3.2% | Inhibition (NEK7; 0.1µM): -17.5% | Inhibition (NEK7; 1µM): 16.7% | Inhibition (NEK9; 0.1µM, Lys1): 8.4% | Inhibition (NEK9; 0.1µM, Lys2): 12.6% | Inhibition (NEK9; 1µM, Lys1): -0.0314% | Inhibition (NEK9; 1µM, Lys2): -3.7% | Inhibition (PAN3; 0.1µM): -11.9% | Inhibition (PAN3; 1µM): -9.9% | Inhibition (PIP4K2C; 0.1µM): 19.6% | Inhibition (PIP4K2C; 1µM): 31.1% | Inhibition (PRP4; 0.1 µM): -2.3% | Inhibition (PRP4; 1 µM): 3.0% | Inhibition (STLK3; 0.1µM): 22.4% | Inhibition (STLK3; 1µM): -36.2% | Inhibition (STLK6; 0.1µM, Lys2): -9.8% | Inhibition (STLK6; 1µM, Lys2): -1.6% | Inhibition (ULK1; 0.1µM): -3.7% | Inhibition (ULK1; 1µM): -7.0% | Inhibition (eEF2K; 0.1µM): 12.2% | Inhibition (eEF2K; 1µM): 6.3% | Inhibition (p38d,p38g; 0.1µM): 7.1% | Inhibition (p38d,p38g; 1µM): -0.541%

Cn1cc(-c2c[nH]c3ncnc(N4CCOCC4)c23)cc1C#N [PFE-360]
inhibition of Rab10 phosphorylation (Rab10-pThr73/total Rab10) (Rab10-pThr73; 1 hr): not at 1 hr | inhibition of Rab10 phosphorylation (Rab10-pThr73/total Rab10) (Rab10-pThr73; 24 hrs): able to inhibit Rab10 phosphorylation at 24 hrs | inhibition of off-target kinases ([1]; acutely isolated human PBMCs): ≤ 60% | % Inhibition (CDC2; 0.1µM, peptide DLKPQNLLIDDK): -1.5% | % Inhibition (CDC2; 0.1µM, peptide DLKPQNLLIDDKGTIK): -4.2% | % Inhibition (CDC2; 1µM, peptide DLKPQNLLIDDK): 4.1% | % Inhibition (FER; 0.1µM, Activation Loop): 10% | % Inhibition (FER; 0.1µM, Lys1): -2% | % Inhibition (FER; 1µM, Activation Loop): 4.9% | % Inhibition (FER; 1µM, Lys1): -3.4% | % Inhibition (FRAP; 0.1µM): -1.2% | % Inhibition (GCN2; 0.1µM, Lys1): 3.5% | % Inhibition (GCN2; 0.1µM, Lys2): -3.6% | % Inhibition (GCN2; 1µM, Lys1): -13.3% | % Inhibition (GCN2; 1µM, Lys2): 2.5% | % Inhibition (IKKe,TBK1; 0.1µM): -25.5% | % Inhibition (IKKe,TBK1; 1µM): 16% | % Inhibition (MAP2K4; 0.1µM, Lys1): -7.3% | % Inhibition (MAP2K4; 0.1µM, Lys2): 7.4% | % Inhibition (MAP2K4; 1µM, Lys1): 11% | % Inhibition (MAP2K4; 1µM, Lys2): -3.8% | % Inhibition (MARK3; 0.1µM): 4.8% | % Inhibition (MARK3; 1µM): 4.7% | % Inhibition (NEK7; 0.1µM): 2.8% | % Inhibition (NEK7; 1µM): 11.7% | % Inhibition (NEK9; 0.1µM, Lys1): -10.6% | % Inhibition (NEK9; 0.1µM, Lys2): 8.9% | % Inhibition (NEK9; 1µM, Lys1): -19.6% | % Inhibition (NEK9; 1µM, Lys2): 5.7% | % Inhibition (PAN3; 0.1µM): -22.1% | % Inhibition (PAN3; 1µM): 10.4% | % Inhibition (PIP4K2C; 0.1µM, peptide TLVIKEVSSEDIADMHSNLSNYHQYIVK): -22.2% | % Inhibition (PIP4K2C; 0.1µM, peptide VKELPTLKDMDFLNK): -16.7% | % Inhibition (PIP4K2C; 1µM, peptide TLVIKEVSSEDIADMHSNLSNYHQYIVK): -14.4% | % Inhibition (PIP4K2C; 1µM, peptide VKELPTLKDMDFLNK): -2.6% | % Inhibition (PRP4; 0.1µM, Lys2): -12.1% | % Inhibition (PRP4; 0.1µM, Protein Kinase Domain): -9.2% | % Inhibition (PRP4; 1µM, Lys2): -13.6% | % Inhibition (PRP4; 1µM, Protein Kinase Domain): -18% | % Inhibition (STLK3; 0.1µM): -1.9% | % Inhibition (STLK3; 1µM): -6.2% | % Inhibition (STLK6; 0.1µM, Lys1): -3.3% | % Inhibition (STLK6; 0.1µM, Lys2): 11.8% | % Inhibition (STLK6; 1µM, Lys1): -20.6% | % Inhibition (STLK6; 1µM, Lys2): -10.2% | % Inhibition (ULK1; 0.1µM): 9.8% | % Inhibition (ULK1; 1µM): 4.2% | % Inhibition (eEF2K; 0.1µM): 15.7% | % Inhibition (eEF2K; 1µM): -1.8% | % Inhibition (p38d,p38g; 0.1µM): 0.8% | % Inhibition (p38d,p38g; 1µM): -7.7%
